This passage reports activation results from EP2522335A1, “Use of resveratrol and sodium-ascorbyl-phophate” (DSM IP Assets B.V., priority 2011, dated 2012).

Like-named read-outs stand apart in the source and are kept apart here.

The subject of this assay is TYR. Put plainly: Assessment of gene modulation in normal human epidermal melanocytes (RT-qPCR, PCR array mQPA H-Melanocyte-64). The class given is cell-based. The following applies: NHEM cells, 72 hours treatment. Here is the method:
Normal human epidermal melanocytes were cultivated for 24 hours. Culture medium was then removed and replaced by fresh medium containing the active ingredient to be evaluated or exempt of it (control). Cells were cultivated for additional 72 hours. All experimental conditions were performed in triplicate. At the end of the cultivation, the cells were harvested and washed with phosphate buffered saline (PBS) solution and immediately frozen at -80 °C. The expression of selected markers was analyzed using RT-qPCR method on mRNA extracted from cells layer for each treatment condition. The differential expression analysis was performed by PCR arrays of the screening format "mQPA H-Melanocyte-64", which focuses on 64 genes selected for their importance in pigmentation and melanocyte biology. Total RNA was extracted from each sample using TRI-Reagent®. The amount and quality of the RNA was evaluated using a lab-on-a-chip Bioanalyzer (Agilent technologies). Potential contaminants traces of DNA were removed […] The incorporation of fluorescence in amplified DNA was measured continuously during the PCR cycles. […] The value selected for RE calculations is the "output point" (Ct) of the fluorescence curve. For a given marker, the highest is the cycle number; the lowest, is the mRNA quantity. The RE value is expressed in arbitrary units (AU) according to the equation: (((1)/(2)))^NC x 10^6 [formula] Where NC is the number of cycles.

[1] abbreviates: resveratrol 5 µg/ml, sodium-ascorbyl-phosphate 1 mg/ml, combination 5 µg/ml + 1 mg/ml, read-out: TYR (expression ratio compared to control of the gene TYR).
Setting [2] is: resveratrol 5 micrograms/ml, sodium-ascorbyl-phosphate 1mg/ml, alone or combined, positive = up-regulation, negative = down-regulation, read-out: up-regulation / down-regulation of TYR when compared to untreated cells.

Consider `Oc1ccc(C=Cc2cc(O)cc(O)c2)cc1` [Resveratrol, 3,4',5 trihydroxystilbene], for which the activation at 5 µg/mL was found to be 25% under setting [1] and 25% under setting [2].

As to `O=C1O[C@H]([C@@H](O)CO)C(O)=C1OP(=O)(O)O` [Sodium-ascorbyl-phosphate], the activation at 1000 µg/mL under setting [1] was found to be 30% and the activation at 1000 µg/mL under setting [2] amounted to 30%.
